Laboratory results: ChEMBL document CHEMBL1909046, “DrugMatrix in vitro pharmacology data”

Legend:
Cytochrome P450 2A6 = target: T1, Cytochrome P450 2A6 (Homo sapiens, UniProt P11509); conditions: bti-tn-5b1-4; also: in other assays of this panel Not Active means under 50% inhibition at 10 µM
T1 sequence (P11509 whole entry): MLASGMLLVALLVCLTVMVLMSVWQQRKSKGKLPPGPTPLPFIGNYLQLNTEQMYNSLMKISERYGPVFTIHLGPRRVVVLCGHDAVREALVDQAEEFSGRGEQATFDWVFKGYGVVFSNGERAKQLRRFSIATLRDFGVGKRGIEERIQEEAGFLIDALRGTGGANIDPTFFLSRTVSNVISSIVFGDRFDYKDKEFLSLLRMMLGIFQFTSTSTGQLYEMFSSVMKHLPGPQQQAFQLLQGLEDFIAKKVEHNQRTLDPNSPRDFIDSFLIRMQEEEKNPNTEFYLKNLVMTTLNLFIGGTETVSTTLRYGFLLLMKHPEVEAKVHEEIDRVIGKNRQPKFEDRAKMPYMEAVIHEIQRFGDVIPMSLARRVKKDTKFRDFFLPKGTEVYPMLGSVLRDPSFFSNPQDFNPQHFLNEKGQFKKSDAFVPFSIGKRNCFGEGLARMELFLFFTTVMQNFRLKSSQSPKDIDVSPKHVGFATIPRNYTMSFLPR

[1] = target: T2, Alpha-2A adrenergic receptor (Homo sapiens, UniProt P08913); format: cell membranes, Sf9, Membrane; also: in other assays of this panel Not Active means under 50% inhibition at 10 µM
T2 sequence (P08913 whole entry): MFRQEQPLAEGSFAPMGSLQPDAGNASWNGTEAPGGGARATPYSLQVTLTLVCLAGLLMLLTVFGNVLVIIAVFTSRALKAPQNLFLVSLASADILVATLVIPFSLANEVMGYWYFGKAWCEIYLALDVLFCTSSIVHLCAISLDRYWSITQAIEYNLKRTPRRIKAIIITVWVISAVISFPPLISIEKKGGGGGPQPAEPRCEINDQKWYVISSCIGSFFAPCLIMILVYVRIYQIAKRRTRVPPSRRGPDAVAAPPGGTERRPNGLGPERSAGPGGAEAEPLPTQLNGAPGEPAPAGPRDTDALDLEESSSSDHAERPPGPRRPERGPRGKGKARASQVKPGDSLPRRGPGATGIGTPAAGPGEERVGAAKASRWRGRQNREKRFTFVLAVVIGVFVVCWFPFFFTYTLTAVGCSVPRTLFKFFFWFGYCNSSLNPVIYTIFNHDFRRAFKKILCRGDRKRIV

[2] = DRUGMATRIX: Imidazoline I2, Central radioligand binding (ligand: [3H] Idazoxan); format: cell membranes, Rattus norvegicus, Wistar, Cerebral cortex, Membrane; conditions: Not Active = under 50% inhibition at 10 µM
Glycine receptor = Glycine receptor (Rattus norvegicus, UniProt P22771+P24524+P07727+P20781); format: cell membranes, Wistar, Spinal cord, Membrane; also: in other assays of this panel Not Active means under 50% inhibition at 10 µM
[3] = DRUGMATRIX: Atrial Natriuretic Factor (ANF) radioligand binding (ligand: [125I] ANF (rat)); format: cell membranes, Cavia porcellus, Dunkin-Hartley, Adrenal gland, Membrane; conditions: Not Active = under 50% inhibition at 10 µM
[4] = target: Beta-1 adrenergic receptor (Homo sapiens, UniProt P08588); assay: DRUGMATRIX: Adrenergic beta1 radioligand binding (ligand: [125I] Cyanopindolol); format: cell membranes, CHO-K1, Membrane; conditions: cho-k1; Not Active = under 50% inhibition at 10 µM
Chain of Beta-1 adrenergic receptor (P08588 whole entry): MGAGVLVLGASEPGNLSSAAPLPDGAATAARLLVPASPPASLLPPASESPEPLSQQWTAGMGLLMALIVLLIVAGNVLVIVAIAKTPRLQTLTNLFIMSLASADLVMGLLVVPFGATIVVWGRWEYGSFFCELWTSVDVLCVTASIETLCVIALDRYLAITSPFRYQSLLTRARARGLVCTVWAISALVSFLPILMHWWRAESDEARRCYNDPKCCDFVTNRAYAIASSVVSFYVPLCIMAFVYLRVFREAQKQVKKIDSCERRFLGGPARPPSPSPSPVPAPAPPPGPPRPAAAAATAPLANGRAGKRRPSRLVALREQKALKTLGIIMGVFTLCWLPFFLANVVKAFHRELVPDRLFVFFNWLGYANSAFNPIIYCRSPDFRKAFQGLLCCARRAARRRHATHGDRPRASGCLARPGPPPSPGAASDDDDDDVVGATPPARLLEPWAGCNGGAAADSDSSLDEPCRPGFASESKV

SMILES	IC50 (Cytochrome P450 2A6)	Ki (Cytochrome P450 2A6)	IC50 ([1]; read-out: IC50)	Ki ([1]; read-out: Ki)	IC50 ([2]; read-out: IC50)	Ki ([2]; read-out: Ki)	IC50 (Glycine receptor)	IC50 [3]	Ki [3]	IC50 [4]	IC50 ([1]; sf9)	IC50 [2]	Ki [2]
CC(C)C[C@H]1C(=O)N2CCC[C@H]2[C@]2(O)O[C@](NC(=O)[C@@H]3C=C4c5cccc6[nH]cc(c56)C[C@H]4N(C)C3)(C(C)C)C(=O)N12 [ERGOCRYPTINE]	Not Active	Not Active	7.95 nM	2.98 nM	3.28 nM	2.19 nM	Not Active	Not Active	Not Active	Not Active	–	–	–
C[C@]12CC[C@@H]3c4ccc(O)cc4CC[C@H]3[C@@H]1C[C@@H](O)[C@@H]2O [ESTRIOL]	Not Active	Not Active	–	–	–	–	Not Active	Not Active	Not Active	Not Active	Not Active	Not Active	Not Active
C#C[C@]1(O)CC[C@H]2[C@@H]3CCC4=CC(=O)CC[C@]4(C)[C@H]3CC[C@@]21C [ETHISTERONE]	Not Active	Not Active	–	–	–	–	Not Active	Not Active	Not Active	Not Active	Not Active	Not Active	Not Active
CC(O)(P(=O)(O)O)P(=O)(O)O [ETIDRONIC ACID]	Not Active	Not Active	–	–	–	–	Not Active	Not Active	Not Active	Not Active	Not Active	Not Active	Not Active
CC(C)(C(=O)O)c1ccc(C(O)CCCN2CCC(C(O)(c3ccccc3)c3ccccc3)CC2)cc1 (stereo not drawn) [FEXOFENADINE]	Not Active	Not Active	–	–	–	–	Not Active	Not Active	Not Active	Not Active	Not Active	Not Active	Not Active
CN1CCN(c2c(F)cc3c(=O)c(C(=O)O)cn(CCF)c3c2F)CC1 [FLEROXACIN]	Not Active	Not Active	–	–	–	–	Not Active	Not Active	Not Active	Not Active	Not Active	Not Active	Not Active
O=c1[nH]c(=O)n([C@H]2C[C@H](O)[C@@H](CO)O2)cc1F [FLOXURIDINE]	Not Active	Not Active	–	–	–	–	Not Active	Not Active	Not Active	Not Active	Not Active	Not Active	Not Active
COC(=O)Nc1nc2cc(C(=O)c3ccc(F)cc3)ccc2[nH]1 [FLUBENDAZOLE]	Not Active	Not Active	–	–	–	–	Not Active	Not Active	Not Active	Not Active	Not Active	Not Active	Not Active
CC(=O)OCC(=O)[C@@]1(O)CC[C@H]2[C@@H]3CCC4=CC(=O)CC[C@]4(C)[C@@]3(F)[C@@H](O)C[C@@]21C [FLUDROCORTISONE ACETATE]	Not Active	Not Active	–	–	–	–	Not Active	Not Active	Not Active	Not Active	Not Active	Not Active	Not Active
CCOC(=O)c1ncn2c1CN(C)C(=O)c1cc(F)ccc1-2 [FLUMAZENIL]	Not Active	Not Active	–	–	–	–	Not Active	Not Active	Not Active	Not Active	Not Active	Not Active	Not Active
O=C(O)P(=O)(O)O [FOSCARNET]	Not Active	Not Active	–	–	–	–	Not Active	Not Active	Not Active	Not Active	Not Active	Not Active	Not Active
Cc1ccc(C)c(OCCCC(C)(C)C(=O)O)c1 [GEMFIBROZIL]	Not Active	Not Active	–	–	–	–	Not Active	Not Active	Not Active	Not Active	Not Active	Not Active	Not Active
O=c1c(-c2ccc(O)cc2)coc2cc(O)cc(O)c12 [GENISTEIN]	Not Active	Not Active	–	–	–	–	Not Active	Not Active	Not Active	Not Active	Not Active	Not Active	Not Active
